# What was measured:
# Format in all cases: functional, organism-based
# Settings in all cases: Mus musculus
# P388 [1] = experiment: Median survival time against P388 leukemia in CDF1 mice at a dose of 3 mg/kg administered intraperitoneally; […]; design: dose 3 mg/kg
# P388 [2] = experiment: Median survival time against P388 leukemia in CDF1 mice at a dose of 1.5 mg/kg administered intraperitoneally; […]; design: dose 1.5 mg/kg
# P388 [3] = experiment: Number of treated mice to that of control against P388 leukemia in CDF1 mice at a dose of 6 mg/kg administered intraperitoneally; active; design: dose 6 mg/kg
# P388 [4] = experiment: Median survival time against P388 leukemia in CDF1 mice at a dose of 6 mg/kg administered intraperitoneally; […]; design: dose 6 mg/kg
# P388 [5] = experiment: Number of treated mice to that of control against P388 leukemia in CDF1 mice at a dose of 1.5 mg/kg administered intraperitoneally; active; design: dose 1.5 mg/kg
# P388 [6] = experiment: Number of treated mice to that of control against P388 leukemia in CDF1 mice at a dose of 3 mg/kg administered intraperitoneally; active; design: dose 3 mg/kg
sequence,measurement,setting,value
CISPLATIN,MST,P388 [1],18.5
same,MST,P388 [2],15.5
same,T/C,P388 [3],249
same,MST,P388 [4],24.5
same,T/C,P388 [5],158
same,T/C,P388 [6],188

# Source: ChEMBL document CHEMBL1123798, “Stereocontrolled syntheses for the six diastereomeric 1,2-dihydroxy-4,5-diaminocyclohexanes: PtII complexes and P-388 antitumor properties” (J Med Chem, 1987)
